PubChem BioAssay AID2060506 (Molecular Pharmacology Branch, DTP, NCI, 2025)

System: 598228-144-R-J1-PDC complex spheroid viability
Test: Anticancer human tumor 598228-144-R-J1-PDC patient-derived serous endometrial adenocarcinoma cell line growth inhibition [GQUAD]
Conditions: for IC50: curve of first compound; for viability, T/C: stronger effect = lower value; active = viability on the fitted dose curve at most 10% of control; inactive = the rest
In short: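 Viability of tumor cells grown as complex spheroids with endothelial and stromal cells, exposed to drug combinations. Top concentration at or near clinical Cmax (else 10 microM), diluted in half-log increments.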

[1] = second compound 0.0316 µM, first compound 0.0316 µM
[2] = second compound 0.0316 µM, first compound 0.1 µM
[3] = second compound 0.0316 µM, first compound 0.316 µM
[4] = second compound 0.0316 µM, first compound 1 µM
[5] = second compound 0.0316 µM, first compound 3.16 µM
[6] = second compound 0.0316 µM, first compound 10 µM
[7] = second compound 0.1 µM, first compound 0.0316 µM
[8] = second compound 0.1 µM, first compound 0.1 µM
[9] = second compound 0.1 µM, first compound 0.316 µM
[10] = second compound 0.1 µM, first compound 1 µM
[11] = second compound 0.1 µM, first compound 3.16 µM
[12] = second compound 0.1 µM, first compound 10 µM
[13] = second compound 0.316 µM, first compound 0.0316 µM
[14] = second compound 0.316 µM, first compound 0.1 µM
[15] = second compound 0.316 µM, first compound 0.316 µM
[16] = second compound 0.316 µM, first compound 1 µM
[17] = second compound 0.316 µM, first compound 3.16 µM
[18] = second compound 0.316 µM, first compound 10 µM
[19] = second compound 1 µM, first compound 0.0316 µM
[20] = second compound 1 µM, first compound 0.1 µM
[21] = second compound 1 µM, first compound 0.316 µM
[22] = second compound 1 µM, first compound 1 µM
[23] = second compound 1 µM, first compound 3.16 µM
[24] = second compound 1 µM, first compound 10 µM
[25] = second compound 3.16 µM, first compound 0.0316 µM
[26] = second compound 3.16 µM, first compound 0.1 µM
[27] = second compound 3.16 µM, first compound 0.316 µM
[28] = second compound 3.16 µM, first compound 1 µM
[29] = second compound 3.16 µM, first compound 3.16 µM
[30] = second compound 3.16 µM, first compound 10 µM
[31] = second compound 10 µM, first compound 0.0316 µM
[32] = second compound 10 µM, first compound 0.1 µM
[33] = second compound 10 µM, first compound 0.316 µM
[34] = second compound 10 µM, first compound 1 µM
[35] = second compound 10 µM, first compound 3.16 µM
[36] = second compound 10 µM, first compound 10 µM
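Also: spheroids exposed to the agents for one week before reading.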
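For viability, T/C in this document: percent of vehicle DMSO control viability so 100% = untreated growth.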

COc1cc(C2c3cc4c(cc3C(OC3OC5COC(C)OC5C(O)C3O)C3COC(=O)C23)OCO4)cc(OC)c1O (stereo not drawn) + Cc1cnc(CNC(=O)c2c(=O)c3ccc(N4CCCN(C)CC4)nc3n3c2sc2ccccc23)cn1
> 10000 nM: IC50 (second compound 0.1 µM) | IC50 (second compound 0.316 µM) | IC50 (second compound 1 µM)
8680 nM: IC50 (second compound 0.0316 µM)
765 nM: IC50 (second compound 10 µM)
inactive: viability, T/C [1] 79.7% | viability, T/C [2] 85.8% | viability, T/C [3] 88.4% | viability, T/C [4] 58.6% | viability, T/C [5] 79.8% | viability, T/C [6] 46.1% | viability, T/C [7] 89.4% | viability, T/C [8] 60.1% | viability, T/C [9] 54.8% | viability, T/C [10] 66.4% | viability, T/C [11] 55.1% | viability, T/C [12] 44.4% | viability, T/C [13] 87.8% | viability, T/C [14] 62% | viability, T/C [15] 64.2% | viability, T/C [16] 72.1% | viability, T/C [17] 67% | viability, T/C [18] 47.8% | viability, T/C [19] 64.2% | viability, T/C [20] 69.9% | viability, T/C [21] 74.7% | viability, T/C [22] 72% | viability, T/C [23] 71.9% | viability, T/C [24] 46.9% | viability, T/C [25] 64.6% | viability, T/C [26] 70.7% | viability, T/C [27] 73.3% | viability, T/C [28] 61.7% | viability, T/C [29] 51.8% | viability, T/C [30] 35% | viability, T/C [31] 57.6% | viability, T/C [32] 45.2% | viability, T/C [33] 52.1% | viability, T/C [34] 47.5% | viability, T/C [35] 43.2% | viability, T/C [36] 9.83%
3430 nM: IC50 (second compound 3.16 µM)

COc1cccc2c1C(=O)c1c(O)c3c(c(O)c1C2=O)CC(O)(C(=O)CO)CC3OC1CC(N)C(O)C(C)O1 (stereo not drawn) + Cc1cnc(CNC(=O)c2c(=O)c3ccc(N4CCCN(C)CC4)nc3n3c2sc2ccccc23)cn1
529 nM: IC50 (second compound 1 µM)
779 nM: IC50 (second compound 0.316 µM)
inactive: viability, T/C [1] 90.4% | viability, T/C [2] 73.9% | viability, T/C [3] 79.3% | viability, T/C [4] 43.3% | viability, T/C [7] 80.8% | viability, T/C [8] 56.7% | viability, T/C [9] 77.8% | viability, T/C [10] 42.5% | viability, T/C [13] 69.1% | viability, T/C [14] 64.6% | viability, T/C [15] 80.3% | viability, T/C [16] 44.1% | viability, T/C [19] 63.1% | viability, T/C [20] 67.6% | viability, T/C [21] 82.9% | viability, T/C [22] 23.8% | viability, T/C [25] 44.3% | viability, T/C [26] 61.6% | viability, T/C [27] 52.7% | viability, T/C [31] 45.2% | viability, T/C [32] 43.8% | viability, T/C [33] 20.7%
807 nM: IC50 (second compound 0.0316 µM)
335 nM: IC50 (second compound 3.16 µM)
< 31.6 nM: IC50 (second compound 10 µM)
745 nM: IC50 (second compound 0.1 µM)
active: viability, T/C [5] 0.82% | viability, T/C [6] 0.57% | viability, T/C [11] 1.19% | viability, T/C [12] 0.85% | viability, T/C [17] 0.37% | viability, T/C [18] 0.24% | viability, T/C [23] 0.6% | viability, T/C [24] 0.4% | viability, T/C [28] 0.52% | viability, T/C [29] 0.72% | viability, T/C [30] 0.28% | viability, T/C [34] 0.36% | viability, T/C [35] 0.41% | viability, T/C [36] 0.29%

Nc1ccn(C2OC(CO)C(O)C2(F)F)c(=O)n1 (stereo not drawn) + Cc1cnc(CNC(=O)c2c(=O)c3ccc(N4CCCN(C)CC4)nc3n3c2sc2ccccc23)cn1
71.2 nM: IC50 (second compound 0.0316 µM)
68.4 nM: IC50 (second compound 0.316 µM)
inactive: viability, T/C [1] 65.9% | viability, T/C [2] 42.8% | viability, T/C [3] 41.7% | viability, T/C [4] 42.5% | viability, T/C [5] 43.6% | viability, T/C [6] 44.6% | viability, T/C [7] 58.7% | viability, T/C [8] 38.4% | viability, T/C [9] 45.7% | viability, T/C [10] 46.6% | viability, T/C [11] 40% | viability, T/C [12] 39% | viability, T/C [13] 63.5% | viability, T/C [14] 43.8% | viability, T/C [15] 38.2% | viability, T/C [16] 44.9% | viability, T/C [17] 44.8% | viability, T/C [18] 39.1% | viability, T/C [19] 58.3% | viability, T/C [20] 41.6% | viability, T/C [21] 47.5% | viability, T/C [22] 39.7% | viability, T/C [23] 54.7% | viability, T/C [24] 46.8% | viability, T/C [25] 60.2% | viability, T/C [26] 43.2% | viability, T/C [27] 36.4% | viability, T/C [28] 26.4% | viability, T/C [29] 50.5% | viability, T/C [30] 37% | viability, T/C [31] 48.5% | viability, T/C [32] 27.7% | viability, T/C [33] 23.3% | viability, T/C [34] 30.2% | viability, T/C [35] 38.8% | viability, T/C [36] 18.6%
52.6 nM: IC50 (second compound 0.1 µM)
< 31.6 nM: IC50 (second compound 1 µM) | IC50 (second compound 3.16 µM) | IC50 (second compound 10 µM)

O=c1[nH]cc(F)c(=O)[nH]1 + Cc1cnc(CNC(=O)c2c(=O)c3ccc(N4CCCN(C)CC4)nc3n3c2sc2ccccc23)cn1
> 10000 nM: IC50 (second compound 0.0316 µM) | IC50 (second compound 0.1 µM) | IC50 (second compound 0.316 µM) | IC50 (second compound 1 µM) | IC50 (second compound 3.16 µM)
< 31.6 nM: IC50 (second compound 10 µM)
inactive: viability, T/C [1] 101% | viability, T/C [2] 98.9% | viability, T/C [3] 85.3% | viability, T/C [4] 85.7% | viability, T/C [5] 89% | viability, T/C [6] 76% | viability, T/C [7] 69.2% | viability, T/C [8] 80.3% | viability, T/C [9] 69.9% | viability, T/C [10] 65.1% | viability, T/C [11] 97.9% | viability, T/C [12] 64.1% | viability, T/C [13] 69.7% | viability, T/C [14] 77.8% | viability, T/C [15] 72.4% | viability, T/C [16] 66.3% | viability, T/C [17] 65.1% | viability, T/C [18] 55.5% | viability, T/C [19] 61.2% | viability, T/C [20] 54.3% | viability, T/C [21] 63.5% | viability, T/C [22] 68.4% | viability, T/C [23] 73.8% | viability, T/C [24] 60.3% | viability, T/C [25] 56.1% | viability, T/C [26] 59.2% | viability, T/C [27] 56% | viability, T/C [28] 46.1% | viability, T/C [29] 67.9% | viability, T/C [30] 52.2% | viability, T/C [31] 44.5% | viability, T/C [32] 49.6% | viability, T/C [33] 48.3% | viability, T/C [34] 53.1% | viability, T/C [35] 59.8% | viability, T/C [36] 51.9%
